The test system of this data set is rodent lifetime carcinogenesis bioassay, tumor incidence TD50. In words: chronic cancer bioassays in animals – CPDB, compiled studies (AID 1745844).

Each structure is given as a SMILES string. Calls of active or inactive are those of the source. How the calls were made is not given here.

For orientation: TD50 means the 50% point of the dose-response relation for the toxic effect studied. Consider `FC(F)Cl`, for which the carcinogen call (mouse, strain Swiss, females, inhaled, site: any site (literature study), lesion: malignant tumor, dosed 78 weeks, study length 104 weeks) is “negative (inactive)”; the carcinogen call (mouse, strain Swiss, females, inhaled, site: any site (literature study), lesion: several types, types named in the paper, dosed 78 weeks, study length 104 weeks) is “negative (inactive)”; the carcinogen call (mouse, strain Swiss, females, inhaled, site: lung, lesion: adenoma, dosed 78 weeks, study length 104 weeks) is “negative (inactive)”; the carcinogen call (mouse, strain Swiss, males, inhaled, site: any site (literature study), lesion: several types, types named in the paper, dosed 78 weeks, study length 104 weeks) was “negative (inactive)”; the carcinogen call (mouse, strain Swiss, males, inhaled, site: lung, lesion: adenoma, dosed 78 weeks, study length 104 weeks) was “negative (inactive)”; the carcinogen call (rat, strain Sprague-Dawley, females, inhaled, site: liver, lesion: angiosarcoma, dosed 104 weeks, study length 104 weeks) is “negative (inactive)”. In addition, the carcinogen call (rat, strain Sprague-Dawley, males, inhaled, site: any site (literature study), lesion: malignant tumor, dosed 104 weeks, study length 104 weeks) is “negative (inactive)” and the carcinogen call (rat, strain Sprague-Dawley, males, inhaled, site: liver, lesion: angiosarcoma, dosed 104 weeks, study length 104 weeks) is “negative (inactive)”. The TD50 reads like this: (mouse, strain Swiss, males, inhaled, site: any site (literature study), lesion: malignant tumor, dosed 78 weeks, study length 104 weeks) 98300 mg/kg/day (inactive); (rat, strain Sprague-Dawley, females, inhaled, site: any site (literature study), lesion: malignant tumor, dosed 104 weeks, study length 104 weeks) 20100 mg/kg/day (inactive); (rat, strain Sprague-Dawley, females, inhaled, site: any site (literature study), lesion: several types, types named in the paper, dosed 104 weeks, study length 104 weeks) 26000 mg/kg/day (inactive); (rat, strain Sprague-Dawley, males, inhaled, site: any site (literature study), lesion: several types, types named in the paper, dosed 104 weeks, study length 104 weeks) 6540 mg/kg/day (inactive).
Regarding `Nc1ccc(Cc2ccc(N)cc2)cc1`, the TD50 is 32.6 mg/kg/day (mouse, strain B6C3F1, females, in drinking water, site: all sites + liver + thyroid gland, lesion: malignant lymphoma, histiocytic type + malignant lymphoma, mixed type + malignant lymphoma, undifferentiated type + malignant, dosed 103 weeks, study length 104 weeks); 64.7 mg/kg/day (mouse, strain B6C3F1, females, in drinking water, site: all sites, lesion: malignant lymphoma, histiocytic type + malignant lymphoma, mixed type + malignant lymphoma, undifferentiated type + malignant, dosed 103 weeks, study length 104 weeks); 52.1 mg/kg/day (mouse, strain B6C3F1, females, in drinking water, site: any site (literature study), lesion: several types, types named in the paper, dosed 103 weeks, study length 104 weeks); 59.3 mg/kg/day (mouse, strain B6C3F1, females, in drinking water, site: liver, lesion: hepatocellular adenoma + hepatocellular carcinoma + neoplastic nodule, dosed 103 weeks, study length 104 weeks); 59.3 mg/kg/day (mouse, strain B6C3F1, females, in drinking water, site: liver, lesion: hepatocellular adenoma + hepatocellular carcinoma, dosed 103 weeks, study length 104 weeks); 135 mg/kg/day (mouse, strain B6C3F1, females, in drinking water, site: liver, lesion: hepatocellular adenoma, dosed 103 weeks, study length 104 weeks). The TD50 (mouse, strain B6C3F1, females, in drinking water, site: liver, lesion: hepatocellular carcinoma, dosed 103 weeks, study length 104 weeks) is 137 mg/kg/day; the TD50 (mouse, strain B6C3F1, females, in drinking water, site: lung, lesion: alveolar/bronchiolar adenoma + alveolar/bronchiolar carcinoma, dosed 103 weeks, study length 104 weeks) worked out at 268 mg/kg/day; the TD50 (mouse, strain B6C3F1, females, in drinking water, site: lung, lesion: alveolar/bronchiolar adenoma, dosed 103 weeks, study length 104 weeks) was found to be 327 mg/kg/day; the TD50 (mouse, strain B6C3F1, females, in drinking water, site: thyroid gland, lesion: follicular-cell adenoma + follicular-cell carcinoma, dosed 103 weeks, study length 104 weeks) came to 128 mg/kg/day; the TD50 (mouse, strain B6C3F1, females, in drinking water, site: thyroid gland, lesion: follicular-cell adenoma, dosed 103 weeks, study length 104 weeks) was 150 mg/kg/day; the TD50 (mouse, strain B6C3F1, males, in drinking water, site: adrenal gland + liver + thyroid gland, lesion: pheochromocytoma + hepatocellular carcinoma + follicular-cell adenoma, dosed 103 weeks, study length 104 weeks) worked out at 28.7 mg/kg/day. The TD50 is 70 mg/kg/day (mouse, strain B6C3F1, males, in drinking water, site: adrenal gland, lesion: pheochromocytoma, dosed 103 weeks, study length 104 weeks); 47.4 mg/kg/day (mouse, strain B6C3F1, males, in drinking water, site: any site (literature study), lesion: several types, types named in the paper, dosed 103 weeks, study length 104 weeks); 17 mg/kg/day (mouse, strain B6C3F1, males, in drinking water, site: liver, lesion: hepatocellular adenoma + hepatocellular carcinoma + neoplastic nodule, dosed 103 weeks, study length 104 weeks); 17 mg/kg/day (mouse, strain B6C3F1, males, in drinking water, site: liver, lesion: hepatocellular adenoma + hepatocellular carcinoma, dosed 103 weeks, study length 104 weeks); 22.3 mg/kg/day (mouse, strain B6C3F1, males, in drinking water, site: liver, lesion: hepatocellular carcinoma, dosed 103 weeks, study length 104 weeks); 88.4 mg/kg/day (mouse, strain B6C3F1, males, in drinking water, site: thyroid gland, lesion: follicular-cell adenoma, dosed 103 weeks, study length 104 weeks). In addition, the TD50 runs as follows: (rat, strain Fischer 344, females, in drinking water, site: any site (literature study), lesion: several types, types named in the paper, dosed 103 weeks, study length 105 weeks) 277 mg/kg/day; (rat, strain Fischer 344, females, in drinking water, site: liver, lesion: hepatocellular adenoma + hepatocellular carcinoma + neoplastic nodule, dosed 103 weeks, study length 105 weeks) 118 mg/kg/day; (rat, strain Fischer 344, females, in drinking water, site: thyroid gland, lesion: c-cell adenoma + c-cell carcinoma, dosed 103 weeks, study length 105 weeks) 70 mg/kg/day; (rat, strain Fischer 344, females, in drinking water, site: thyroid gland, lesion: c-cell adenoma + follicular-cell adenoma, dosed 103 weeks, study length 105 weeks) 22 mg/kg/day; (rat, strain Fischer 344, females, in drinking water, site: thyroid gland, lesion: c-cell adenoma, dosed 103 weeks, study length 105 weeks) 73.7 mg/kg/day; (rat, strain Fischer 344, females, in drinking water, site: thyroid gland, lesion: follicular-cell adenoma + follicular-cell carcinoma, dosed 103 weeks, study length 105 weeks) 27.2 mg/kg/day. For the same compound, the TD50 is, setting by setting: (rat, strain Fischer 344, females, in drinking water, site: thyroid gland, lesion: follicular-cell adenoma, dosed 103 weeks, study length 105 weeks) 33.5 mg/kg/day; (rat, strain Fischer 344, males, in drinking water, site: liver + thyroid gland, lesion: neoplastic nodule + follicular-cell carcinoma, dosed 103 weeks, study length 105 weeks) 12.5 mg/kg/day; (rat, strain Fischer 344, males, in drinking water, site: liver, lesion: hepatocellular adenoma + hepatocellular carcinoma + neoplastic nodule, dosed 103 weeks, study length 105 weeks) 14.1 mg/kg/day; (rat, strain Fischer 344, males, in drinking water, site: liver, lesion: neoplastic nodule, dosed 103 weeks, study length 105 weeks) 14.3 mg/kg/day; (rat, strain Fischer 344, males, in drinking water, site: thyroid gland, lesion: follicular-cell adenoma + follicular-cell carcinoma, dosed 103 weeks, study length 105 weeks) 49.5 mg/kg/day; (rat, strain Fischer 344, males, in drinking water, site: thyroid gland, lesion: follicular-cell carcinoma, dosed 103 weeks, study length 105 weeks) 85.4 mg/kg/day.
Turning to `Cc1ccc(OP(=O)(Oc2ccc(C)cc2)Oc2ccc(C)cc2)cc1`, the carcinogen call (mouse, strain B6C3F1, females, in feed, site: any site (literature study), lesion: several types, types named in the paper, dosed 104 weeks, study length 105 weeks) was “negative (inactive)” and the carcinogen call (rat, strain Fischer 344, males, in feed, site: any site (literature study), lesion: several types, types named in the paper, dosed 104 weeks, study length 104 weeks) was “negative (inactive)”. Further, the TD50 (mouse, strain B6C3F1, females, in feed, site: lung, lesion: alveolar/bronchiolar adenoma + alveolar/bronchiolar carcinoma, dosed 104 weeks, study length 105 weeks) worked out at 2310 mg/kg/day; the TD50 (mouse, strain B6C3F1, males, in feed, site: Harderian gland, lesion: adenoma, dosed 104 weeks, study length 105 weeks) is 184 mg/kg/day (inactive); the TD50 (mouse, strain B6C3F1, males, in feed, site: any site (literature study), lesion: several types, types named in the paper, dosed 104 weeks, study length 105 weeks) turned out to be 159 mg/kg/day; the TD50 (mouse, strain B6C3F1, males, in feed, site: liver, lesion: hepatocellular adenoma + hepatoblastoma + hepatocellular carcinoma, dosed 104 weeks, study length 105 weeks) was found to be 968 mg/kg/day; the TD50 (mouse, strain B6C3F1, males, in feed, site: lung, lesion: alveolar/bronchiolar adenoma + alveolar/bronchiolar carcinoma, dosed 104 weeks, study length 105 weeks) was determined as 187 mg/kg/day; the TD50 (rat, strain Fischer 344, females, in feed, site: all sites, lesion: mononuclear-cell leukemia, dosed 104 weeks, study length 104 weeks) is 35 mg/kg/day (inactive). Besides, the TD50 runs as follows: (rat, strain Fischer 344, females, in feed, site: any site (literature study), lesion: several types, types named in the paper, dosed 104 weeks, study length 104 weeks) 21.6 mg/kg/day; (rat, strain Fischer 344, males, in feed, site: liver, lesion: hepatocellular adenoma + hepatoblastoma + hepatocellular carcinoma, dosed 104 weeks, study length 104 weeks) 143 mg/kg/day.
With `[Cl][Hg]`, the carcinogen call (mouse, strain BALB/c, males, in feed, site: liver, lesion: one or several types, types not named, dosed 60 weeks, study length 104 weeks) is “negative (inactive)” and the carcinogen call (mouse, strain BALB/c, males, in feed, site: lung, lesion: one or several types, types not named, dosed 60 weeks, study length 104 weeks) is “negative (inactive)”.
`CC(=O)OC/C=C(C)/C=C/C=C(C)/C=C/C1=C(C)CCCC1(C)C`: the TD50 is 7340 mg/kg/day (rat, strain F344/DuCrj, females, in drinking water, site: adrenal medulla, lesion: pheochromocytoma, malignant, dosed 104 weeks, study length 108 weeks); 227 mg/kg/day (rat, strain F344/DuCrj, females, in drinking water, site: adrenal medulla, lesion: pheochromocytoma, dosed 104 weeks, study length 108 weeks); 7340 mg/kg/day (rat, strain F344/DuCrj, females, in drinking water, site: liver, lesion: neoplastic nodule, dosed 104 weeks, study length 108 weeks); 552 mg/kg/day (rat, strain F344/DuCrj, males, in drinking water, site: adrenal medulla, lesion: pheochromocytoma, malignant, dosed 104 weeks, study length 108 weeks); 86.4 mg/kg/day (rat, strain F344/DuCrj, males, in drinking water, site: adrenal medulla, lesion: pheochromocytoma, dosed 104 weeks, study length 108 weeks); 6470 mg/kg/day (rat, strain F344/DuCrj, males, in drinking water, site: liver, lesion: cholangioma, dosed 104 weeks, study length 108 weeks). Moreover, the TD50 (rat, strain F344/DuCrj, males, in drinking water, site: liver, lesion: neoplastic nodule, dosed 104 weeks, study length 108 weeks) was 2060 mg/kg/day; the TD50 (rat, strain F344/DuCrj, males, in drinking water, site: liver, lesion: several types, types named in the paper, dosed 104 weeks, study length 108 weeks) was 3670 mg/kg/day; the TD50 (rat, strain F344/DuCrj, males, in drinking water, site: spleen, lesion: mononuclear-cell leukemia, dosed 104 weeks, study length 108 weeks) stood at 548 mg/kg/day; the TD50 (rat, strain F344/DuCrj, males, in drinking water, site: thyroid gland, lesion: c-cell adenoma, dosed 104 weeks, study length 108 weeks) amounted to 671 mg/kg/day; the TD50 (rat, strain F344/DuCrj, males, in drinking water, site: thyroid gland, lesion: several types, types named in the paper, dosed 104 weeks, study length 108 weeks) is 976 mg/kg/day. For the same compound, the carcinogen call (rat, strain F344/DuCrj, males, in drinking water, site: forestomach, lesion: neoplasm, dosed 52 weeks, study length 52 weeks) is “negative (inactive)”.
For `CC1CN1P(=O)(N1CC1C)N1CC1C` (configuration not stated), the TD50 (rat, strain Sherman, males, by gavage, site: all sites, lesion: lymphatic leukemia, dosed 60 weeks, study length 60 weeks) was 4.46 mg/kg/day.

Values taken from PubChem BioAssay AID1745844 (Carcinogenic Potency Database (CPDB), 2022).
